Results: ChEMBL document CHEMBL1156400, “Cedronolactone E, a novel C(19) quassinoid from Simaba cedron” (J Nat Prod, 2001)
≈ marks a conversion by molar mass, not a printed value.

Tested on: P388
Assay: Cytotoxicity against mouse P388 cells
Format: functional, cell-based

## C[C@@H]1[C@@H]2[C@@H](O)C(=O)O[C@@H]3C[C@@]4(C)C(=C(O[C@@]5(C)CC(=O)O[C@@H]45)[C@@H]1O)[C@]23CO [CEDRONOLACTONE E]
  IC50: 51 µg/mL (≈ 134 µM)
